Results from patent US20090022803A1, “Oral Formulations For Delivery of Catecholic Butanes Including Ndga Compounds” (priority 2005, published 2009).

Assay: Human Phase 0 three-way crossover microdose pharmacokinetic study of 14C-labelled M4N, AMS
Type: in vivo
Conditions: for F: bioavailability of oral dose compared to IV dose; for Tmax: intravenous dose
Protocol: This study was designed to assess the absorption of M4N when administered to humans as a sub-therapeutic dose either as a single oral dose under fed and fasted conditions or a single intravenous dose (Regimens A-C, respectively, in Table 24). The study was a three-way crossover study design in a target population of healthy male subjects and consisted of three study periods of approximately 35 hours duration, each separated by a minimum period of at least 7 days between dosing. During the course of each study period, pharmacokinetic blood samples were taken at specified time points after dosing and urine was collected over pre-defined time intervals. The subjects were able to leave the clinical unit after the completion of study specific procedures at 24 hours post-dose.
In this study, M4N was administered to humans in a 100 μg quantity. M4N was lightly-labelled with ^14C (3.3 kBq per 100 μg) and administered to healthy volunteers. Each oral administration of M4N consisted of 0.1 mg of ^14C labeled M4N and 376.8 mg of glycerol monooleate in a size 0 gelatin capsule. The single intravenous infusion of M4N consisted of 0.1 mg/mL ^14C labelled M4N, 30% (w/v) HP-β-CD, and 25% (v/v) PEG diluted with water to 1 mL for bolus injection. Following collection of blood and urine from each subject, samples were analyzed for ^14C content using Accelerator Mass Spectrometry (AMS) to determine the maximum concentration of M4N (Cmax) that occurred at time Tmax, the overall area under the curve (AUC) that corresponds to the overall absorption of M4N at the times of testing (AUC0-t) and overall (AUC0-∞), the terminal half-life (T1/2) of each sample and the relative and overall bioavailability (Frel and F), of the oral dose of M4N compared to the IV dose of M4N. The baseline levels of M4N were corrected for any residual M4N remaining in the subjects following the periods between dosing so as not to inflate the levels of M4N for any subsequent dosing.

[1] = human, 100 μg, total 14C plasma
[2] = human, oral and intravenous 100 μg

In the case of `COc1ccc(C[C@@H](C)[C@@H](C)Cc2ccc(OC)c(OC)c2)cc1OC` [Formulation M4N, meso-1,4-bis(3,4-dimethoxyphenyl)-2,3-dimethylbutane], the F (Regimen A (oral, fed): 100 μg single oral dose following a high fat breakfast, 14C, baseline corrected, mean ± SD) is reported as 91.2 ± 19.1%, the F (Regimen B (oral, fasted): 100 μg single oral dose following an overnight fast, 14C, baseline corrected, mean ± SD) is reported as 122.1 ± 14.5% and the “AUC0-t oral dose in fasted subjects compared with the intravenous dose” value [1] is reported as “slightly higher”. The “AUC0-t oral dose in fed subjects compared with the intravenous dose” value [1] was “slightly lower”, the “apparent absorption following oral administration” value (human, fed and fasted state) was “very high” and the Tmax (human, eight of the ten subjects (first sampling time)) was 4.8 min. The Tmax (human, two subjects) was 10.2 min, the “AUC0-t in fed subjects compared with fasted subjects” value (human, oral 100 μg) was “generally lower” and the “Tmax, generally” value (human, oral 100 μg, fasted subjects) was 1 h. The adverse events [2] was “no serious or severe adverse events”, the tolerability [2] was “well tolerated” and the “vital signs or ECGs” value [2] was “No clinically significant changes”. It also gave a Frel (relative bioavailability, Regimen A (oral, fed): 100 μg single oral dose following a high fat breakfast, 14C, baseline corrected, mean ± SD) of 75.1 ± 16.2%.
